According to the supplement of paper PMC6335503:

What was measured:
Experiment in all cases: cell viability, percent of DMSO control (CellTiter-Glo); higher = more viable cells
Settings in all cases: 72 h
[1] = tested on: DFTD cell line T4 (07/0192)
Procedure: (§1)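 Eight-point dose titration of 41 screen hits in triplicate wells on four Tasmanian devil DFTD tumour cell lines (T1-T4) and devil fibroblasts, 384-well plates. Viability was read by CellTiter-Glo (ATP) after 72 h at 37 °C. Percent of control per plate: DMSO wells = 100%, positive-control wells = 0%.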

[2] = tested on: DFTD cell line T3 (06/0368)
Procedure: as §1

[3] = tested on: DFTD cell line T2 (05/2569)
Procedure: as §1

[4] = tested on: DFTD cell line T1 (06/2887)
Procedure: as §1

C=CC(=O)N1CCC(Oc2cc3c(Nc4ccc(Cl)c(Cl)c4F)ncnc3cc2OC)CC1 [Poziotinib (HM781-36B)]
cell viability [%]
Settings	0.00617 µM	0.0185 µM	0.0556 µM	0.166667 µM	0.5 µM	1.5 µM	4.5 µM	13.5 µM
[1]	88.7	44.9	30.6	26.5	27.4	27.1	22.8	21.4
[2]	87	52.5	44	44.6	42.2	30.8	35.9	33
[3]	87.7	49.6	41.5	38.3	39	26.8	22.5	17
[4]	56.7	29.4	24.3	29.3	28	24.4	26.8	26.6

O=C(/C=C/c1cccc(S(=O)(=O)Nc2ccccc2)c1)NO [RLM 2-89]
cell viability [%]
Settings	0.000617 µM	0.00185 µM	0.00556 µM	0.0167 µM	0.05 µM	0.15 µM	0.45 µM	1.35 µM
[1]	121	109	87.9	125	123	83.5	38.1	19.1
[2]	120	103	116	121	128	77.7	32.4	28.9
[3]	110	96.3	118	106	125	82.3	28.8	20.7
[4]	130	115	116	113	114	52.6	20.5	17.4

C=CC(=O)Nc1cccc(Nc2nc(Nc3ccc(N4CCN(C(C)=O)CC4)cc3OC)ncc2C(F)(F)F)c1 [Rociletinib (CO-1686, AVL-301)]
cell viability [%]
Settings	0.00617 µM	0.0185 µM	0.0556 µM	0.166667 µM	0.5 µM	1.5 µM	4.5 µM	13.5 µM
[1]	116	101	102	89.6	88.6	56.6	32.4	11.9
[2]	127	113	94.5	99.1	101	58.2	40.4	17.4
[3]	119	108	108	104	86.5	63.1	33.7	12
[4]	121	114	113	92.4	80.6	41.4	16.9	4.81

Cn1cnc2c(F)c(Nc3ccc(Br)cc3Cl)c(C(=O)NOCCO)cc21.O=S(=O)(O)O [Selumetinib (AZD6244)]
cell viability [%]
Settings	0.00617 µM	0.0185 µM	0.0556 µM	0.166667 µM	0.5 µM	1.5 µM	4.5 µM	13.5 µM
[1]	89	105	88	62.8	56.2	46	35	31.1
[2]	102	112	99.1	75.3	63.7	56.9	42.5	50.7
[3]	98.8	102	108	63	51.7	39.3	35.4	35.8
[4]	104	100	104	57	41	35.4	29.1	33.4

CC(C)(C)P(=NC(=S)NCCCO)(N1CCCCCC1)N1CCCCCC1 [T0503-0280]
cell viability [%]
Settings	0.00617 µM	0.0185 µM	0.0556 µM	0.166667 µM	0.5 µM	1.5 µM	4.5 µM	13.5 µM
[1]	118	85.2	129	105	112	38.2	11.4	30.9
[2]	106	83.3	134	118	99.4	66	17.6	16.1
[3]	107	87.6	127	115	92.6	68.7	14.8	27.7
[4]	94.1	106	125	116	96.1	50.7	24.5	19.9

CCS(=O)(=O)c1cccc(-c2cc(C(=O)NC3CCN(C)CC3)c(C)c3[nH]c4ncc(C)cc4c23)c1 [TAK901]
cell viability [%]
Settings	0.00617 µM	0.0185 µM	0.0556 µM	0.166667 µM	0.5 µM	1.5 µM	4.5 µM	13.5 µM
[1]	99.7	109	103	104	96.7	26.5	-1.88	-6.14
[2]	106	105	95.9	98.5	104	42.6	4.34	-3.65
[3]	125	103	127	111	126	42.4	1.18	-1.98
[4]	104	109	113	121	138	59.4	12	-4.29

COc1cc2ncnc(Nc3ccc(O)c(Br)c3)c2cc1OC [WHI-P154]
cell viability [%]
Settings	0.00617 µM	0.0185 µM	0.0556 µM	0.166667 µM	0.5 µM	1.5 µM	4.5 µM	13.5 µM
[1]	85.6	134	115	84.5	69	42.4	30.6	19.7
[2]	76.9	125	98.1	92	67.7	55.6	40.4	32.8
[3]	85	116	105	95.7	58.1	45.3	32.1	20.6
[4]	90.9	125	103	86	46.2	36.9	25	21.8

COCCn1c2c([n+](Cc3cnccn3)c1C)C(=O)c1ccccc1C2=O.[Br-] [YM155]
cell viability [%]
Settings	0.00617 µM	0.0185 µM	0.0556 µM	0.166667 µM	0.5 µM	1.5 µM	4.5 µM	13.5 µM
[1]	107	91.5	86.1	32.4	7.29	-1.02	5.5	-4.07
[2]	111	95.3	105	89.3	22	5.85	4.15	-5.27
[3]	106	87.2	111	91.9	42.4	4.91	-0.0383	-10.8
[4]	106	104	109	80.8	38.4	6.92	1.97	-9.67
